Results: PubChem BioAssay AID1963984 (Molecular Pharmacology Branch, DTP, NCI, 2024)

Test system: 233499-124-R-J3-PDC spheroids with HUVEC/MSC, viability
Assay: Anticancer human tumor 233499-124-R-J3-PDC patient-derived colon adenocarcinoma cell line growth inhibition [PI3K]
Details: for IC50: curve of first compound; for viability, T/C: stronger effect = lower value
How it was run: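 Multi-cell spheroids combine tumor cells with HUVEC and human MSCs, treated with targeted agents alone or with inavolisib, alpelisib, duvelisib or copanlisib. Concentrations fall in half-log steps from at or near clinical Cmax, or from 10 microM where Cmax is unknown; viability read-out.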
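Further: spheroids exposed to agents for seven days before readout.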
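Wherever viability, T/C is given: percent viability relative to DMSO vehicle control taken as 100%.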

Structure (SMILES): CC1(C)CCC(Nc2ncc(C(F)(F)F)c(-c3c[nH]c4c(P(C)(C)=O)c(C#N)ccc34)n2)CN1 (centres undefined) + COc1c(OCCCN2CCOCC2)ccc2c3n(c(=NC(=O)c4cnc(N)nc4)nc12)CCN3
- IC50 (second compound 0.00316 µM): 287 nM
- IC50 (second compound 0.01 µM): 205 nM
- IC50 (second compound 0.0316 µM): 56.7 nM
- IC50 (second compound 0.1 µM): 102 nM
- IC50 (second compound 0.316 µM): < 31.6 nM
- IC50 (second compound 1 µM): < 31.6 nM
- viability, T/C (second compound 0.00316 µM, first compound 0.0316 µM): 64.2%
- viability, T/C (second compound 0.00316 µM, first compound 0.1 µM): 73.2%
- viability, T/C (second compound 0.00316 µM, first compound 0.316 µM): 42%
- viability, T/C (second compound 0.00316 µM, first compound 1 µM): 29.5%
- viability, T/C (second compound 0.00316 µM, first compound 3.16 µM): 29.5%
- viability, T/C (second compound 0.00316 µM, first compound 10 µM): 5.37%
- viability, T/C (second compound 0.01 µM, first compound 0.0316 µM): 56.5%
- viability, T/C (second compound 0.01 µM, first compound 0.1 µM): 67.6%
- viability, T/C (second compound 0.01 µM, first compound 0.316 µM): 42.7%
- viability, T/C (second compound 0.01 µM, first compound 1 µM): 15.7%
- viability, T/C (second compound 0.01 µM, first compound 3.16 µM): 25.4%
- viability, T/C (second compound 0.01 µM, first compound 10 µM): 5.25%
- viability, T/C (second compound 0.0316 µM, first compound 0.0316 µM): 58.4%
- viability, T/C (second compound 0.0316 µM, first compound 0.1 µM): 43.3%
- viability, T/C (second compound 0.0316 µM, first compound 0.316 µM): 29.8%
- viability, T/C (second compound 0.0316 µM, first compound 1 µM): 29.7%
- viability, T/C (second compound 0.0316 µM, first compound 3.16 µM): 37.7%
- viability, T/C (second compound 0.0316 µM, first compound 10 µM): 2.18%
- viability, T/C (second compound 0.1 µM, first compound 0.0316 µM): 58.3%
- viability, T/C (second compound 0.1 µM, first compound 0.1 µM): 53.9%
- viability, T/C (second compound 0.1 µM, first compound 0.316 µM): 37.2%
- viability, T/C (second compound 0.1 µM, first compound 1 µM): 26.1%
- viability, T/C (second compound 0.1 µM, first compound 3.16 µM): 23.7%
- viability, T/C (second compound 0.1 µM, first compound 10 µM): 2.55%
- viability, T/C (second compound 0.316 µM, first compound 0.0316 µM): 33.5%
- viability, T/C (second compound 0.316 µM, first compound 0.1 µM): 29.4%
- viability, T/C (second compound 0.316 µM, first compound 0.316 µM): 24.3%
- viability, T/C (second compound 0.316 µM, first compound 1 µM): 14.7%
- viability, T/C (second compound 0.316 µM, first compound 3.16 µM): 16.3%
- viability, T/C (second compound 0.316 µM, first compound 10 µM): 1.17%
- viability, T/C (second compound 1 µM, first compound 0.0316 µM): 8.22%
- viability, T/C (second compound 1 µM, first compound 0.1 µM): 10.7%
- viability, T/C (second compound 1 µM, first compound 0.316 µM): 8.48%
- viability, T/C (second compound 1 µM, first compound 1 µM): 14.2%
- viability, T/C (second compound 1 µM, first compound 3.16 µM): 6.77%
- viability, T/C (second compound 1 µM, first compound 10 µM): 1.03%

Structure (SMILES): Cn1cnc2c(F)c(Nc3ccc(Br)cc3Cl)c(C(=O)NOCCO)cc21 + Cc1nc(NC(=O)N2CCCC2C(N)=O)sc1-c1ccnc(C(C)(C)C(F)(F)F)c1
- IC50 (second compound 0.0316 µM): 198 nM
- IC50 (second compound 0.1 µM): 87.6 nM
- IC50 (second compound 0.316 µM): 87.9 nM
- IC50 (second compound 1 µM): 24.9 nM
- IC50 (second compound 3.16 µM): < 9.49 nM
- IC50 (second compound 10 µM): < 9.49 nM
- viability, T/C (second compound 0.0316 µM, first compound 0.00949 µM): 88.1%
- viability, T/C (second compound 0.0316 µM, first compound 0.03 µM): 84.8%
- viability, T/C (second compound 0.0316 µM, first compound 0.0949 µM): 57%
- viability, T/C (second compound 0.0316 µM, first compound 0.3 µM): 47.3%
- viability, T/C (second compound 0.0316 µM, first compound 0.949 µM): 52%
- viability, T/C (second compound 0.0316 µM, first compound 3 µM): 37.3%
- viability, T/C (second compound 0.1 µM, first compound 0.00949 µM): 86.8%
- viability, T/C (second compound 0.1 µM, first compound 0.03 µM): 68%
- viability, T/C (second compound 0.1 µM, first compound 0.0949 µM): 39%
- viability, T/C (second compound 0.1 µM, first compound 0.3 µM): 45.9%
- viability, T/C (second compound 0.1 µM, first compound 0.949 µM): 28.4%
- viability, T/C (second compound 0.1 µM, first compound 3 µM): 20.2%
- viability, T/C (second compound 0.316 µM, first compound 0.00949 µM): 64.2%
- viability, T/C (second compound 0.316 µM, first compound 0.03 µM): 63.5%
- viability, T/C (second compound 0.316 µM, first compound 0.0949 µM): 35.1%
- viability, T/C (second compound 0.316 µM, first compound 0.3 µM): 57.2%
- viability, T/C (second compound 0.316 µM, first compound 0.949 µM): 30.3%
- viability, T/C (second compound 0.316 µM, first compound 3 µM): 32.6%
- viability, T/C (second compound 1 µM, first compound 0.00949 µM): 88.5%
- viability, T/C (second compound 1 µM, first compound 0.03 µM): 39.5%
- viability, T/C (second compound 1 µM, first compound 0.0949 µM): 36.1%
- viability, T/C (second compound 1 µM, first compound 0.3 µM): 27.8%
- viability, T/C (second compound 1 µM, first compound 0.949 µM): 29.1%
- viability, T/C (second compound 1 µM, first compound 3 µM): 19.6%
- viability, T/C (second compound 3.16 µM, first compound 0.00949 µM): 32.8%
- viability, T/C (second compound 3.16 µM, first compound 0.03 µM): 34%
- viability, T/C (second compound 3.16 µM, first compound 0.0949 µM): 24.2%
- viability, T/C (second compound 3.16 µM, first compound 0.3 µM): 11.5%
- viability, T/C (second compound 3.16 µM, first compound 0.949 µM): 15.7%
- viability, T/C (second compound 3.16 µM, first compound 3 µM): 8.72%
- viability, T/C (second compound 10 µM, first compound 0.00949 µM): 22.3%
- viability, T/C (second compound 10 µM, first compound 0.03 µM): 19.2%
- viability, T/C (second compound 10 µM, first compound 0.0949 µM): 8.64%
- viability, T/C (second compound 10 µM, first compound 0.3 µM): 5.65%
- viability, T/C (second compound 10 µM, first compound 0.949 µM): 7.32%
- viability, T/C (second compound 10 µM, first compound 3 µM): 7.06%
